Laboratory results: patent US20060030585A1, “Tricyclic delta-opioid modulators” (priority 2004, published 2006)
Several values for one entry are separate records, joined by “and”; a condition that tells them apart may be missing. Identical values can stand only once. Like-named read-outs stand apart in the source and are kept apart here.

Assays:
delta opioid receptor = delta opioid receptor (Rattus norvegicus, UniProt P33533); assay: Rat brain delta opioid receptor binding assay ([3H]DPDPE); details: Rat delta opioid receptor binding constant, rat forebrain membranes, ~4 nM [3H]DPDPE
Procedure: Rat Brain Delta Opioid Receptor Binding Assay
Procedure: Male, Sprague Dawley rats (150-250 g, VAF, Charles River, Kingston, N.Y.) were killed by CO2, and their brains removed and placed immediately in ice cold Tris HCl buffer (50 mM, pH 7.4). The forebrains were separated from the remainder of the brain by a coronal transection, beginning dorsally at the colliculi and passing ventrally through the midbrain-pontine junction. After dissection, the forebrains were homogenized in Tris buffer in a Teflon®-glass homogenizer. The homogenate was diluted to a concentration of 1 g of forebrain tissue per 80 mL Tris and centrifuged at 39,000×g for 10 min. The pellet was resuspended in the same volume of Tris buffer containing 5 mM MgCl2 with several brief pulses from a Polytron homogenizer. This particulate preparation was used for the delta opioid binding assays. Following incubation with the delta selective peptide ligand ˜4 nM [^3H]DPDPE at 25° C. for 2.5 h in a 96-well plate with total volume of 1 mL, the plate contents were filtered through Wallac filtermat B sheets on a Tomtec 96-well harvester. The filters were rinsed three times with 2 mL of 10 mM HEPES (pH 7.4), and dried in a 650 W microwave oven for 1.75 min twice. To each sample area 2×50 μL of Betaplate Scint scintillation fluid (LKB) was added and the radioactivity quantified on a LKB (Wallac) 1205 BetaPlate liquid scintillation counter.
(§1) Analysis: The data from the scintillation counter were used to calculate either the % inhibition compared to control binding (when only a single concentration of test compound was evaluated) or a Ki value (when a range of concentrations was tested). Percent inhibition was calculated as: [(total dpm-test compound dpm)/(total dpm-nonspecific dpm)]*100. Kd and Ki values were calculated using GraphPad PRISM data analysis program.

mu opioid receptor = mu opioid receptor (Rattus norvegicus, UniProt P33535); assay: Rat brain mu opioid receptor binding assay ([3H]DAMGO); details: Rat mu opioid receptor binding constant, rat forebrain membranes, ~0.8 nM [3H]DAMGO
Procedure: Rat Brain Mu Opioid Receptor Binding Assay
Procedure: Male, Sprague Dawley rats (150-250 g, VAF, Charles River, Kingston, N.Y.) were killed by CO2, and their brains removed and placed immediately in ice cold Tris HCl buffer (50 mM, pH 7.4). The forebrains were separated from the remainder of the brain by a coronal transection, beginning dorsally at the colliculi and passing ventrally through the midbrain-pontine junction. After dissection, the forebrains were homogenized in Tris buffer in a Teflon®-glass homogenizer. The homogenate was diluted to a concentration of 1 g of forebrain tissue per 80 mL Tris and centrifuged at 39,000×g for 10 min. The pellet was resuspended in the same volume of Tris buffer containing 5 mM MgCl2 with several brief pulses from a Polytron homogenizer. This particulate preparation was used for the delta opioid binding assays.
as §1, with “concentrations” for “concentrations was”

[1] = target: T1, delta opioid receptor (NG108-15 cell membranes) (Mus musculus, UniProt P32300); assay: [35S]GTPγS binding assay in NG108-15 cell membranes (delta opioid); assay type: biochemical; details: agonist-stimulated [35S]GTPγS binding
T1 construct: NG108-15 cell membranes were purchased from Applied Cell Sciences (Rockville, Md.); host or cells: NG108-15 cell membranes (purchased)
Procedure: [^35S]GTPγS Binding Assay in NG108-15 Cell Membranes (delta opioid)
Methods: NG108-15 cell membranes were purchased from Applied Cell Sciences (Rockville, Md.). 8 mg/mL of membrane protein suspended in 10 mM TRIS-HCl pH 7.2, 2 mM EDTA, 10% sucrose. Membranes were maintained at 4-8° C. A 1 mL volume of membranes was added into 10 mL cold binding assay buffer. The assay buffer contained 50 mM Tris, pH 7.6, 5 mM MgCl2, 100 mM NaCl, 1 mM DTT and 1 mM EGTA. The membrane suspension was homogenized twice with a Polytron, and centrifuged at 3000 rpm for 10 min. The supernatant was then centrifuged at 18,000 rpm for 20 min. Ten mL assay buffer was added into the pellet containing tube. The pellet and buffer were mixed with a Polytron.
Incubation procedure: The pellet membranes (75 μg/mL) were preincubated with SPA (10 mg/mL) at 25° C. for 45 min in the assay buffer. […] GTPγS in the same Tris buffer containing 100 μM GDP in total volume of 200 μL. Increasing concentrations of receptor agonists were used to stimulate [35S]-GTPγS binding. The basal binding was tested in the absence of agonists and non-specific binding was tested in the presence of 10 μM unlabeled GTPγS. The data were analyzed on a Packard Top Count.
% of Basal=(stimulated−non specific)*100/(basal−non specific). EC50 value values were calculated using GraphPad Prism.

[2] = target: T2, hMOR (CHO-hMOR cell membranes) (Homo sapiens, UniProt P35372); assay: [35S]GTPγS binding assay in CHO-hMOR cell membranes; assay type: biochemical
T2 construct: host or cells: CHO cells expressing hMOR (purchased membranes)
Procedure: [^35]GTPγS Binding Assays in CHO-hMOR Cell Membranes
Methods: CHO-hMOR cell membranes were purchased from Receptor Biology, Inc. (Baltimore, Md.). About 10 mg/mL of membrane protein was suspended in 10 mM TRIS-HCl pH 7.2, 2 mM EDTA, 10% sucrose, and the suspension kept on ice. A 1 mL volume of membranes was added to 15 mL cold binding assay buffer containing 50 mM HEPES, pH 7.6, 5 mM MgCl2, 100 mM NaCl, 1 mM DTT and 1 mM EDTA. The membrane suspension was homogenized with a Polytron and centrifuged at 3,000 rpm for 10 min. The supernatant was then centrifuged at 18,000 rpm for 20 min. The pellet was resuspended in 10 mL assay buffer with a Polytron. The membranes were preincubated with wheat germ agglutinin coated SPA beads (Amersham) at 25° C. for 45 min in the assay buffer. The SPA bead (5 mg/mL) coupled membranes (10 μg/mL) were then incubated with 0.5 nM [^35S]GTPγS in the assay buffer. […] A range of concentrations of receptor agonist was used to stimulate [35S]GTPγS binding. Both basal and non-specific binding was tested in the absence of agonist; non-specific binding determination included 10 μM unlabeled GTPγS.
Compounds were tested for function as antagonists by evaluating their potential to inhibit agonist-stimulated GTPγS binding. Radioactivity was quantified on a Packard TopCount. The following parameters were calculated: [formula] [formula]
EC50 values were calculated using GraphPad Prism.

[3] = DOR GTPγS EC50, NG108-15 cell membranes
[4] = NG108-15 cell membranes, read-out: DOR GTPγS EC50

Chain of delta opioid receptor (P33533 whole entry): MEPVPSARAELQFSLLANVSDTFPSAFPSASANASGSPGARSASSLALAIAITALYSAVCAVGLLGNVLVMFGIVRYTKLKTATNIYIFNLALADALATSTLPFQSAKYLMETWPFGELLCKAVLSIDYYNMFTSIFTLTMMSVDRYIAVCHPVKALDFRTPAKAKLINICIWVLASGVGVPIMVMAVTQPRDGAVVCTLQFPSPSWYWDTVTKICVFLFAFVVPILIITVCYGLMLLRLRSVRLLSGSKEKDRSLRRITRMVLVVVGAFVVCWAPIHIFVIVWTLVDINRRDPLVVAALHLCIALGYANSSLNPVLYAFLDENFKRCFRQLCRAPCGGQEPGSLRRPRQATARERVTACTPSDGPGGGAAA
Chain of mu opioid receptor (P33535 whole entry): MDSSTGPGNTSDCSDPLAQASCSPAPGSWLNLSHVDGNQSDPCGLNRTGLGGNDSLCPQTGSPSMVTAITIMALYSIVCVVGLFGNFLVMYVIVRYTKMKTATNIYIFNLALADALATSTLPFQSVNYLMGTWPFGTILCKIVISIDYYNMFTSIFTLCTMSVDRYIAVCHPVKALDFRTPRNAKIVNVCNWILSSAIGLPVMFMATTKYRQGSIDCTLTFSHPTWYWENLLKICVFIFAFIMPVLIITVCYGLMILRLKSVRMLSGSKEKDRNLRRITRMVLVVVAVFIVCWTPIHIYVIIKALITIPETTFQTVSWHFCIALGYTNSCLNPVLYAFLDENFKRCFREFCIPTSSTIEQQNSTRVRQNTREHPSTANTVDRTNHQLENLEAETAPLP
T1 sequence (P32300 whole entry): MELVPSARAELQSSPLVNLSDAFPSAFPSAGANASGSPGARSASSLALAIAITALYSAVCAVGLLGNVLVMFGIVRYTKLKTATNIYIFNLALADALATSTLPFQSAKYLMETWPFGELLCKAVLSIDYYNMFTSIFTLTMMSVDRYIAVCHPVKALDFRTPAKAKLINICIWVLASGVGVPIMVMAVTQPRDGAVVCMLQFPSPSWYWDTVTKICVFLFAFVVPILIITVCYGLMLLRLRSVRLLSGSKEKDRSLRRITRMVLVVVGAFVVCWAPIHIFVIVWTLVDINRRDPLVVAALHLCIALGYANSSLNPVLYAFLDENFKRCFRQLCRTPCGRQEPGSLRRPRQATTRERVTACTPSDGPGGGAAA
T2 sequence (P35372 whole entry): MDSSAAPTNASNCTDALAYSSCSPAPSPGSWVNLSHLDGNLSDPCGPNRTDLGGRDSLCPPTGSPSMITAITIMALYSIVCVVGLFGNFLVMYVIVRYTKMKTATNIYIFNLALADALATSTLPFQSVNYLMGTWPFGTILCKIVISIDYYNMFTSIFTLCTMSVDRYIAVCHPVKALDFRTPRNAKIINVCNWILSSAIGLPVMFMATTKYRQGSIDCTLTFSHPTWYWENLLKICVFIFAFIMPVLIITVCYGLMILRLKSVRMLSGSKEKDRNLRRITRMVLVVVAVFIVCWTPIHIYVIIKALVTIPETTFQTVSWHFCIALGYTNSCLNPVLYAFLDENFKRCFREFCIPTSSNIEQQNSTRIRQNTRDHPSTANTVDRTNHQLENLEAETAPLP

Row | Structure (SMILES) | Ki (delta opioid receptor; DOR Ki) [nM] | Ki (mu opioid receptor; MOR Ki) [nM] | EC50 [1, 3] | Ki (delta opioid receptor; read-out: DOR Ki) [nM] | Ki (mu opioid receptor; read-out: MOR Ki) [nM] | EC50 [1, 4] [nM] | EC50 [2] [nM] | EC50 ([2]; CHO-hMOR cell membranes, [35S]GTPγS binding, read-out: hMOR GTPγS EC50) [nM]
1 | O=C(NC(CO)Cc1ccccc1)c1ccc2c(c1)Oc1ccccc1C2=C1CC2CCC(C1)N2 (single isomer, unassigned) [Cpd 15] | 27.5 | 414 | 79 nM | – | – | – | – | –
2 | c1ccc2c(c1)Sc1cc(-c3nnn[nH]3)ccc1C2=C1C[C@H]2CC[C@@H](C1)N2 (single isomer, unassigned) [Cpd 103, (1SR,5RS)-3-[3-(1H-tetrazol-5-yl)-thioxanthen-9-ylidene]-8-aza-bicyclo[3.2.1]octane] | 10.1 | 329 | 49.6 nM | – | – | – | – | –
3 | c1ccc2c(c1)Oc1cc(-c3nnn[nH]3)ccc1C2=C1CC2CCC(C1)N2 [Cpd 1, 3-[3-(1H-Tetrazol-5-ly)-xanthen-9-ylidene]-8-aza-bicyclo[3.2.1]octane] | 1.99 | 637 | 189 nM and 70.3 nM | – | – | – | – | –
4 | CC(=O)Nc1ccccc1-c1ccc2c(c1)Oc1ccccc1C2=C1CC2CCC(C1)N2 [Cpd 2, N-{2-[9-(8-Aza-bicyclo[3.2.1]oct-3-ylidene)-9H-xanthen-3-yl]-phenyl}-aceta-mide] | 4.36 | 1140 | 394 nM | – | – | – | – | –
5 | O=c1[nH]c(-c2ccc3c(c2)Oc2ccccc2C3=C2CC3CCC(C2)N3)no1 [Cpd 4, 3-[9-(8-Aza-bicyclo[3.2.1]oct-3-ylidene)-9H-xanthen-3-yl]-4H-[1,2,4]oxadiazol-5-one] | 6.78 | 768 | 128 nM | – | – | – | – | –
6 | S=c1[nH]c(-c2ccc3c(c2)Oc2ccccc2C3=C2CC3CCC(C2)N3)no1 [Cpd 5, 3-[9-(8-Aza-bicyclo[3.2.1]oct-3-ylidene)-9H-xanthen-3-yl]-4H-[1,2,4]oxadiazole-5-thione] | 6.89 | 1020 | 104 nM | – | – | – | – | –
7 | O=C(c1ccc2c(c1)Oc1ccccc1C2=C1CC2CCC(C1)N2)N1CCCC1 [Cpd 6, [9-(8-Aza-bicyclo[3.2.1]oct-3-ylidene)-9H-xanthen-3-yl]-pyrrolidin-1-yl-methanone] | 7.4 | 1400 | 59 nM | – | – | – | – | –
8 | COCCN(C)C(=O)c1ccc2c(c1)Oc1ccccc1C2=C1CC2CCC(C1)N2 [Cpd 7] | 7.63 | 1810 | 173 nM | – | – | – | – | –
9 | O=c1[nH]c(-c2ccc3c(c2)Oc2ccccc2C3=C2CC3CCC(C2)N3)ns1 [Cpd 8, 3-[9-(8-Aza-bicyclo[3.2.1]oct-3-ylidene)-9H-xanthen-3-yl]-4H-[1,2,4]thiadiazol-5-one] | 10.8 | 1080 | 359 nM | – | – | – | – | –
10 | O=C(NCc1cccc(F)c1)c1ccc2c(c1)Oc1ccccc1C2=C1CC2CCC(C1)N2 [Cpd 11] | – | – | – | 18.5 | 739 | 209 | – | –
11 | c1cncc(-c2ccc3c(c2)Oc2ccccc2C3=C2CC3CCC(C2)N3)c1 [Cpd 12, 3-(3-Pyridin-3-yl-xanthen-9-ylidene)-8-aza-bicyclo[3.2.1]octane] | 24 | 2130 | 587 nM | – | – | – | 0.47 | –
12 | Cc1cccc(C)c1OCC(C)NC(=O)c1ccc2c(c1)Oc1ccccc1C2=C1CC2CCC(C1)N2 (stereo not shown) [Cpd 13] | 23.6 | – | – | – | 2920 | 641 | – | –
13 | Cn1nnc(-c2ccc3c(c2)Oc2ccccc2C3=C2CC3CCC(C2)N3)n1 [Cpd 16, 3-[3-(2-Methyl-2H-tetrazol-5-yl)-xanthen-9-ylidene]-8-aza-bicyclo[3.2.1]octane] | 30 | 1460 | 573 nM | – | – | – | 0.48 | –
14 | COc1cccc2c1Oc1cc(-c3cccnc3)ccc1C2=C1CC2CCC(C1)N2 [Cpd 71] | – | – | – | 5.7 | 1140 | 1940 | – | –
15 | c1ccc2c(c1)Oc1cc(-c3nnn[nH]3)ccc1C2=C1CC2CCC(C1)N2 [Cpd 80] | – | – | – | – | – | 226 | – | –
16 | COc1cccc2c1Oc1cc(-c3nnn[nH]3)ccc1C2=C1CC2CCC(C1)N2 [Cpd 82] | – | – | – | 5.6 | 307 | 88.4 | – | –
17 | Oc1cccc2c1Oc1cc(-c3nnn[nH]3)ccc1C2=C1CC2CCC(C1)N2 [Cpd 90] | – | – | – | – | – | 0.7 | – | 90
18 | O=c1[nH]c(-c2ccc3c(c2)Oc2ccccc2C3=C2CC3CCC(C2)N3)no1 [Cpd 91] | – | – | – | 0.76 | > 10000 | 72.2 | – | –
19 | O=c1[nH]c(-c2ccc3c(c2)Oc2ccccc2C3=C2CC3CCC(C2)N3)no1 [Cpd 92] | – | – | – | 0.07 | 502 | 102 | – | –
20 | S=c1[nH]c(-c2ccc3c(c2)Oc2ccccc2C3=C2CC3CCC(C2)N3)no1 [Cpd 93] | – | – | – | 0.37 | 3740 | 631 | – | –
21 | S=c1[nH]c(-c2ccc3c(c2)Oc2ccccc2C3=C2CC3CCC(C2)N3)no1 [Cpd 94] | – | – | – | 0.04 | 219 | 126 | – | –
22 | O=c1[nH]c(-c2ccc3c(c2)Oc2ccccc2C3=C2CC3CCC(C2)N3)ns1 [Cpd 101] | – | – | – | 7 | 465 | 281 | – | –
23 | COc1cccc2c1Oc1cc(-c3ccccc3NC(C)=O)ccc1C2=C1CC2CCC(C1)N2 [Cpd 108] | – | – | – | 33.9 | 426 | 117 | – | –
24 | O=c1[nH]c(-c2ccc3c(c2)Oc2c(O)cccc2C3=C2CC3CCC(C2)N3)no1 [Cpd 134, 3-[9-(8-Aza-bicyclo[3.2.1]oct-3-ylidene)-5-hydroxy-9H-xanthen-3-yl]-4H-[1,2,4]oxadiazol-5-one] | 0.12 | 2 | – | – | – | – | – | –
